Data: patent US11135234B2, “Effective aminoglycoside antibiotic for multidrug-resistant bacteria” (MICROBIAL CHEMISTRY RESEARCH FOUNDATION, priority 2015, dated 2021)
≈ marks a conversion by molar mass, not a printed value.

Legend:
S. aureus RN4220 = test: MIC, agar plate dilution method, S. aureus RN4220; assay type: cell-based, Staphylococcus aureus; conditions: for minimal inhibitory concentration (MIC): S. aureus RN4220, Sensitive bacterium
Outline: (§1)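 Minimal inhibitory concentration (μg/mL) was determined by agar plate dilution following the Japan Society of Chemotherapy method.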

[1] = system: K. pneumoniae ATCC BAA-1705; test: MIC, agar plate dilution method, K. pneumoniae ATCC BAA-1705; assay type: cell-based, Klebsiella pneumoniae; conditions: for minimal inhibitory concentration (MIC): K. pneumoniae ATCC BAA-1705, KPC-producing strain
Outline: as §1

[2] = system: A. baumannii ATCC BAA-1710; test: MIC, agar plate dilution method, A. baumannii ATCC BAA-1710; assay type: cell-based, Acinetobacter baumannii; conditions: for minimal inhibitory concentration (MIC): A. baumannii ATCC BAA-1710, MDRA
Outline: as §1

S. aureus MF490 = test: MIC, agar plate dilution method, S. aureus MF490; assay type: cell-based, Staphylococcus aureus; conditions: for minimal inhibitory concentration (MIC): S. aureus MF490, MRSA
Outline: as §1

S. aureus RN4220/pMS520 = test: MIC, agar plate dilution method, S. aureus RN4220/pMS520; assay type: cell-based, Staphylococcus aureus; conditions: for minimal inhibitory concentration (MIC): S. aureus RN4220/pMS520, MRSA
Outline: as §1

E. coli JM109/pMW218 = test: MIC, agar plate dilution method, E. coli JM109/pMW218; assay type: cell-based, Escherichia coli; conditions: for minimal inhibitory concentration (MIC): E. coli JM109/pMW218, Sensitive bacterium
Outline: as §1

S. marcescens GN6944 = test: MIC, agar plate dilution method, S. marcescens GN6944; assay type: cell-based, Serratia marcescens; conditions: S. marcescens GN6944, GM-resistant
Outline: as §1

[3] = system: K. pneumoniae ATCC BAA-2146; test: MIC, agar plate dilution method, K. pneumoniae ATCC BAA-2146; assay type: cell-based, Klebsiella pneumoniae; conditions: for minimal inhibitory concentration (MIC): K. pneumoniae ATCC BAA-2146, NDM-producing strain
Outline: as §1

P. aeruginosa PAO1/GN315 = test: MIC, agar plate dilution method, P. aeruginosa PAO1/GN315; assay type: cell-based, Pseudomonas aeruginosa; conditions: for minimal inhibitory concentration (MIC): P. aeruginosa PAO1/GN315, AMK-resistant
Outline: as §1

P. aeruginosa MSC17707 = test: MIC, agar plate dilution method, P. aeruginosa MSC17707; assay type: cell-based, Pseudomonas aeruginosa; conditions: for minimal inhibitory concentration (MIC): P. aeruginosa MSC17707, AMK-resistant
Outline: as §1

P. aeruginosa PAO1 = test: MIC, agar plate dilution method, P. aeruginosa PAO1; assay type: cell-based, Pseudomonas aeruginosa; conditions: for minimal inhibitory concentration (MIC): P. aeruginosa PAO1, Sensitive bacterium
Outline: as §1

S. marcescens TH-0447 = test: MIC, agar plate dilution method, S. marcescens TH-0447; assay type: cell-based, Serratia marcescens; conditions: for minimal inhibitory concentration (MIC): S. marcescens TH-0447, AMK-resistant
Outline: as §1

E. faecium ATCC19434 = test: MIC, agar plate dilution method, E. faecium ATCC19434; assay type: cell-based, Enterococcus faecium; conditions: for minimal inhibitory concentration (MIC): E. faecium ATCC19434
Outline: as §1

P. aeruginosa MSC01035 = test: MIC, agar plate dilution method, P. aeruginosa MSC01035; assay type: cell-based, Pseudomonas aeruginosa; conditions: P. aeruginosa MSC01035, ABK-resistant
Outline: as §1

## CNC1C(O[C@H]2OC(CO)[C@@H](NC(=N)N)CC2O)O[C@H]2CC(N)[C@@H](O[C@@H]3C(N)C[C@@H](N)C(O)[C@H]3F)OC2C1O (stereo partly drawn) [Compound X4-b, 4″-deamino-5,3″-dideoxy-5-epi-5-fluoro-4″-guanidinoapramycin]
S. aureus RN4220; Staphylococcus aureus, RN4220, S. aureus RN4220, Sensitive bacterium, read-out: minimal inhibitory concentration (MIC)
  MIC: 1 µg/mL (≈ 1.76 µM)
[1]; Klebsiella pneumoniae, ATCCBAA1705, K. pneumoniae ATCC BAA-1705, KPC-producing strain, read-out: minimal inhibitory concentration (MIC)
  MIC: 1 µg/mL (≈ 1.76 µM)
[2]; Acinetobacter baumannii, ATCCBAA1710, A. baumannii ATCC BAA-1710, MDRA, read-out: minimal inhibitory concentration (MIC)
  MIC: 16 µg/mL (≈ 28.2 µM)
S. aureus MF490; Staphylococcus aureus, MRSA, read-out: minimal inhibitory concentration (MIC)
  MIC: 4 µg/mL (≈ 7.05 µM)
S. aureus RN4220/pMS520; Staphylococcus aureus, MRSA, read-out: minimal inhibitory concentration (MIC), S. aureus RN4220/pMS520, MRSA
  MIC: 1 µg/mL (≈ 1.76 µM)
E. coli JM109/pMW218; Escherichia coli, JM109/PMW218, E. coli JM109/pMW218, Sensitive bacterium, read-out: minimal inhibitory concentration (MIC)
  MIC: 1 µg/mL (≈ 1.76 µM)
S. marcescens GN6944; Serratia marcescens, read-out: minimal inhibitory concentration (MIC)
  MIC: 4 µg/mL (≈ 7.05 µM)
[3]; Klebsiella pneumoniae, ATCCBAA2146, K. pneumoniae ATCC BAA-2146, NDM-producing strain, read-out: minimal inhibitory concentration (MIC)
  MIC: 1 µg/mL (≈ 1.76 µM)
P. aeruginosa PAO1/GN315; Pseudomonas aeruginosa, read-out: minimal inhibitory concentration (MIC), P. aeruginosa PAO1/GN315, AMK-resistant
  MIC: 8 µg/mL (≈ 14.1 µM)
P. aeruginosa MSC17707; Pseudomonas aeruginosa, MSC17707, P. aeruginosa MSC17707, AMK-resistant, read-out: minimal inhibitory concentration (MIC)
  MIC: 8 µg/mL (≈ 14.1 µM)
P. aeruginosa PAO1; Pseudomonas aeruginosa, PAO1, P. aeruginosa PAO1, Sensitive bacterium, read-out: minimal inhibitory concentration (MIC)
  MIC: 4 µg/mL (≈ 7.05 µM)
S. marcescens TH-0447; Serratia marcescens, TH0447, S. marcescens TH-0447, AMK-resistant, read-out: minimal inhibitory concentration (MIC)
  MIC: 4 µg/mL (≈ 7.05 µM)
E. faecium ATCC19434; Enterococcus faecium, ATCC19434, E. faecium ATCC19434, read-out: minimal inhibitory concentration (MIC)
  MIC: 8 µg/mL (≈ 14.1 µM)
P. aeruginosa MSC01035; Pseudomonas aeruginosa, read-out: minimal inhibitory concentration (MIC)
  MIC: 16 µg/mL (≈ 28.2 µM)

## CNC1C(OC2CC(O)C(N)C(CO)O2)OC2CC(N)C(OC3C(N)CC(N)C(O)C3O)OC2C1O (stereo not drawn) [Compound Y3, 2″-deoxy-5,3″-diepiapramycin]
S. aureus RN4220
  minimal inhibitory concentration (MIC): 2 µg/mL (≈ 3.82 µM)
[1]
  minimal inhibitory concentration (MIC): 2 µg/mL (≈ 3.82 µM)
[2]
  minimal inhibitory concentration (MIC): 8 µg/mL (≈ 15.3 µM)
S. aureus MF490
  minimal inhibitory concentration (MIC): 4 µg/mL (≈ 7.64 µM)
S. aureus RN4220/pMS520
  minimal inhibitory concentration (MIC): 2 µg/mL (≈ 3.82 µM)
E. coli JM109/pMW218
  minimal inhibitory concentration (MIC): 1 µg/mL (≈ 1.91 µM)
S. marcescens GN6944
  minimal inhibitory concentration (MIC): 4 µg/mL (≈ 7.64 µM)
[3]
  minimal inhibitory concentration (MIC): 2 µg/mL (≈ 3.82 µM)
P. aeruginosa PAO1/GN315
  minimal inhibitory concentration (MIC): 8 µg/mL (≈ 15.3 µM)
P. aeruginosa MSC17707
  minimal inhibitory concentration (MIC): 8 µg/mL (≈ 15.3 µM)
P. aeruginosa PAO1
  minimal inhibitory concentration (MIC): 4 µg/mL (≈ 7.64 µM)
S. marcescens TH-0447
  minimal inhibitory concentration (MIC): 8 µg/mL (≈ 15.3 µM)
E. faecium ATCC19434
  minimal inhibitory concentration (MIC): 8 µg/mL (≈ 15.3 µM)
P. aeruginosa MSC01035
  minimal inhibitory concentration (MIC): 16 µg/mL (≈ 30.6 µM)

## gentamicin [GM, reference compound]
S. aureus RN4220
  minimal inhibitory concentration (MIC): 0.5 µg/mL
[1]
  minimal inhibitory concentration (MIC): 2 µg/mL
[2]
  minimal inhibitory concentration (MIC): >64 µg/mL
S. aureus MF490
  minimal inhibitory concentration (MIC): >64 µg/mL
S. aureus RN4220/pMS520
  minimal inhibitory concentration (MIC): 0.5 µg/mL
E. coli JM109/pMW218
  minimal inhibitory concentration (MIC): 0.25 µg/mL
S. marcescens GN6944
  minimal inhibitory concentration (MIC): 64 µg/mL
[3]
  minimal inhibitory concentration (MIC): >64 µg/mL
P. aeruginosa PAO1/GN315
  minimal inhibitory concentration (MIC): 8 µg/mL
P. aeruginosa MSC17707
  minimal inhibitory concentration (MIC): 8 µg/mL
P. aeruginosa PAO1
  minimal inhibitory concentration (MIC): 2 µg/mL
S. marcescens TH-0447
  minimal inhibitory concentration (MIC): 32 µg/mL
E. faecium ATCC19434
  minimal inhibitory concentration (MIC): 8 µg/mL
P. aeruginosa MSC01035
  minimal inhibitory concentration (MIC): >64 µg/mL
